In US8183364B2, “Substituted porphyrins” (Duke University, priority 2004, dated 2012):
Where two headings read alike, the source gives them in different places.

Tests used:
[1] = tested on: SOD-deficient JI132 E. coli; test: Aerobic growth of SOD-deficient E. coli; assay type: cell-based; conditions: for facilitation of aerobic growth of SOD-deficient E. coli, dependence on concentration: 1-30 μM
Experimental: (§1) Aerobic growth of E. coli. Bacterial strains of E. coli used were wild type AB1157 (F-thr-1 leu-1 proA2 his-4 argE3 thr-1 lacY1 galK2 rpsL supE44 ara-14 xyl-15 mtl-1 tsx-33) and SOD-deficient JI132 (same as AB1157 plus (sodA::mudPR13)25 (sodB-kan)1-Δ2. Culture media were prepared as follows. M9 medium: 6 g/L Na2HPO4, 3 g/L KH2PO4, 0.5 g/L NaCl, 1 g/L NH4Cl, 2 mM MgSO4, 0.1 mM CaCl2, adjusted to pH 7.4 with NaOH, and supplemented with 0.2% glucose, 3 mg/L each of D-panthotenic acid and thiamine. M9CA medium contained M9 medium plus 0.2% casamino acids. 5-amino acid (5AA) minimal medium contained M9 medium plus 0.5 mM each of threonine, leucine, histidine, proline and arginine (Faulkner et al, J. Biocl. Chem. 269:23471 (1994)).
(§2) AB 1157 and 31132 were precultured overnight aerobically in M9CA medium at 37° C. and were then diluted to 3×10^7 cells/mL into 5 mL M9CA medium. JI132 was precultured in the presence of 20 μg/mL chloramphenicol and 500 μg/mL kanamycin. When the cells are transferred from M9CA medium to 5AA minimal medium cultures were first centrifuged and washed twice with the 5AA medium before final dilution in it. The centrifugation was conducted at room temperature to avoid temperature shocks. Cultures without and with Mn porphyrins (0.1 to 30 μM) were grown aerobically in 5 mL volume in test tubes in a thermostated orbital shaker (45° angle, 200 rpm) at 37° C.). Rates of growth were followed turbidimetrically at 700 nm to minimize interference from the absorbance of test compounds.

[2] = Mn(III)/Mn(II); 0.1 M NaCl, 0.05 M phosphate buffer, pH 7.8; data from Batinic-Haberle et al 2002; cited from earlier work
[3] = pH 7.8, (22 ± 1) °C; data from Batinic-Haberle et al 2002 (MnTE-2-PyP: Inorg. Chem. 40:726 (2001)); cited from earlier work
[4] = data from Batinic-Haberle et al 2002, cited from earlier work; for Rf (compound path/solvent path), metal-free porphyrin (in parenthesis): metal-free ligand of the named Mn porphyrin; for Rf (compound path/solvent path), Mn complex: silica gel TLC, KNO3-saturated H2O/H2O/acetonitrile = 1/1/8
[5] = Electrochemistry: cyclic voltammetry of the Mn(III)/Mn(II) redox couple; assay type: physicochemical
Experimental: Electrochemistry. Measurements were performed on a CH Instruments Model 600 Voltammetric Analyzer (Spasojevic and Batinic-Haberle, Inorg. Chim. Acta. 317:230-242 (2001), Batinic-Haberle et al, J. Biol. Chem. 273:24521-24528 (1998), Batinic-Haberle et al, Inorg. Chem. 38:4011-4022 (1999)). A three-electrode system in a small volume cell (0.5 mL to 3 mL), with a 3 mm-diameter glassy carbon button working electrode (Bioanalytical Systems), plus the Ag/AgCl reference and Pt auxiliary electrodes was used. Argon-purged solutions contained 0.05 M phosphate buffer, pH 7.8, 0.1 M NaCl, and 0.5 mM metalloporphyrin. The scan rates were 0.01-0.5 V/s, typically 0.1 V/s. The potentials were standardized against the potassium ferrocyanide/ferricyanide (Kolthof and Tomsicek, J. Phys. Chem. 39:945 (1935)) and/or against MnTE-2-PyP^5+ (Spasojevic and Batinic-Haberle, Inorg. Chim. Acta. 317:230-242 (2001), Batinic-Haberle et al, J. Biol. Chem. 273:24521-24528 (1998), Batinic-Haberle et al, Inorg. Chem. 38:4011-4022 (1999)).
Electrochemistry. All cyclic voltammograms, ascribed to the Mn(III)/Mn(II) redox couple, are reversible. The E1/2 of di-ortho ethylimidazolylporphyrin, MnTDE-2-ImP^5+ is 118 mV more positive than of ortho ethylpyridylporphyrin, MnTE-2-PyP^5+ (+228 mV vs NHE), as a consequence of charge delocalization. A similar difference of 114 mV was seen between their methoxyethyl analogues. Mn porphyrins bearing N-pyridyl substituents of the same length, MnTnBu-PyP^5+ and MnTMOE-2-PyP^5+, have nearly identical E1/2 of +254 and +251 mV vs NHE, which is 26 and 23 mV higher than that of MnTE-PyP^5+.

[6] = Catalysis of O2.^− dismutation by pulse radiolysis; assay type: biochemical; conditions: pulse radiolysis, pH 7.8, (22 ± 1) °C; kcat ±30%
Experimental: Catalysis of O2.^− dismutation. The catalytic rate constants for the O2.^− dismutation were determined by pulse radiolysis in 0.05 M phosphate buffer (pH 7.8) at (22±1)° C. as previously described (Batinic-Haberle et al, Inorg. Chem. 40:726 (2001)). In the present study 10 mM formate was used as a scavenger for H. atoms and .OH radicals, which leads first to production of CO2.^− radicals and then to O2.^− radicals. This system is known to lead to conversion of all primary radicals of water radiolysis into O2.^−.
Catalysis of O2.^− dismutation. Pulse radiolysis was used to assess the SOD-like activities of the Mn porphyrins studied. The initial concentration of O2.^− produced by the pulse was about 27 μM, and the concentration of the Mn porphyrin was between 0.5 and 5 μM. The dismutation of O2.^− was followed at 280 nm. The catalytic rate constant was determined from the linear dependence of kobs upon the concentration of the catalyst (Batinic-Haberle et al, Inorg. Chem. 40:726 (2001)). All the new compounds have high O2.^− dismuting ability. The magnitude of the catalysis is due to the interplay of the electron-withdrawing effects of quaternized ortho pyridyl or di-ortho imidazolyl groups, favorable electrostatics, and the solvation of the metal site.

[7] = Thin-layer chromatography on silica gel (retention factor Rf, lipophilicity); assay type: physicochemical; conditions: silica gel TLC, KNO3-saturated H2O/H2O/acetonitrile = 1/1/8
Experimental: Uv/vis spectra of porphyrin ligands and their Mn complexes were taken on a Shimadzu UV-2501-PC spectrophotometer at 25° C. Thin-layer chromatography of ligands and Mn complexes was done using silica gel plates with KNO3satH2O/H2O/acetonitrile=1/1/8.
Thin-layer chromatography. All new methoxyporphyrins are more lipophilic than MnTE-2-PyP^5+ and MnTDE-2-ImP^5+.

[8] = Oxidative degradation in the presence of ascorbic acid under aerobic conditions; assay type: physicochemical; conditions: pH 7.8 (0.05 M tris buffer)
Experimental: Under these conditions porphyrins underwent oxidative degradation. As previously observed (Batinic-Haberle et al, J. Chem. Soc., Dalton Trans., pgs. 2689-2696 (2002)), those porphyrins that are of more positive E1/2 are stabilized in +2 oxidation state and are less prone to oxidative damage. Accordingly, 27% and 24% of MnTE-2-PyP^5+ and MnTMOE-2-PyP^5+ undergo degradation within 2 hours, but only 2% of MnTM,MOE-2-ImP^5+ and MnTDMOE-2-ImP^5+ and 3% of MnTDE-2-ImP^5+.

[9] = tested on: wild type AB1157 E. coli; test: Aerobic growth of wild type E. coli (toxicity); assay type: cell-based
Experimental: as §1, §2

[10] = Kinetic salt effect on O2.^− dismutation by cytochrome c assay; assay type: biochemical
Experimental: Kinetic salt effect. The dependence of the catalytic rate constant for the O2.^− dismutation upon ionic strength was determined by cytochrome c assay (McCord and Fridovich, J. Biol. Chem. 244:6049 (1969)) in 0.05 M phosphate buffer, pH 7.8 with NaCl ranging from 0 to 0.4 M. In doing this, the effect of ionic strength on the rate of the O2.^−/cytochrome c reaction was corrected for.
Kinetic salt effect. The effect of the ionic strength (μ) on the catalytic rate constant was assessed using eq which is based on Debye-Huckel relation (Hambright et al, J. Porphyrins Phthalocyanines 7:139-146 (2003)) for the effect of the ionic strength of the solution on the activity coefficient of an ion. log k=log kref+2AzAzBμ^1/2/(1+μ^1/2) The k is the rate constant at any given ionic strength, while kref is the rate constant at μ=0. The A is a collection of physical constants with a value of 0.509 and zA and zB are the charges of the reacting species. The equation predicts a linear plot of log k vs μ^1/2/(1+μ^1/2). Eq assumes a coefficient of 1.0 (βai) for μ^1/2 in the denominator, i.e., the distance of the closest approach, ai to be 3 A and β is a physical constant, […]. It is doubtful whether great significance can be attributed to the ai, thus to the product zAzB (Hambright et al, J. Porphyrins Phthalocyanines 7:139-146 (2003)), especially so in the light of the bulkiness, high charge and solvation shell of the metalloporphyrins. Accounting for the mono- and diprotonated phosphates as the major species at pH 7.8 (pKa=7.2), and the concentration of the NaCl, the ionic strength was calculated using equation μ=½ Σ mizi^2 where mi is the molality and zi the charge of the given ion.
The slopes of the plots are −6.48 (MnTE-2-PyP^5+), −7.02 (MnTMOE-2-PyP^5+), −7.38 (MnTDMOE-2-ImP^5+), and −4.15 (MnTnBu-2-PyP^5+). As expected (Hambright et al, J. Porphyrins Phthalocyanines 7:139-146 (2003)), when the reactants are ions of opposite charges, the higher the ionic strength of the solution the lower the rate constants, i.e. the slopes are negative. The slopes of the plots indicate clearly the impact of the local dielectric constant on the kcat. The kcat of the most lipophilic compound, MnTnBu-2-PyP^5+ is 40% less sensitive to the changes in ionic strength of the solution than is the kcat of its methoxyethyl analogue, MnTMOE-2-PyP^5+.

| Structure (SMILES) | aerobic growth of SOD-deficient E. coli ([1]; 5AA minimal medium, 25 μM) | protection of SOD-deficient E. coli ([1]; M9CA medium, 1 μM) | protection of SOD-deficient E. coli ([1]; M9CA medium, 30 μM) | facilitation of aerobic growth of SOD-deficient E. coli, dependence on concentration ([1]; M9CA medium) | Metal-centered redox potential E1/2 [2] | log kcat for O2^− dismutation [3] | Rf (compound path/solvent path), metal-free porphyrin (in parenthesis) [4] | Rf (compound path/solvent path), Mn complex [4] | also measured |
| --- | --- | --- | --- | --- | --- | --- | --- | --- | --- |
| C[n+]1ccccc1-c1c2nc(c(-c3cccc[n+]3C)c3ccc([n-]3)c(-c3cccc[n+]3C)c3nc(c(-c4cccc[n+]4C)c4ccc1[n-]4)C=C3)C=C2.[Mn+3] [MnTM-2-PyP^5+] | not far behind | low protection | either much higher or near full protection | concentration-dependent manner | +220 mV vs NHE | 7.79 | 0.13 | 0.09 | – |
| COCCn1cc[n+](C)c1-c1c2nc(c(-c3n(CCOC)cc[n+]3C)c3ccc([n-]3)c(-c3n(CCOC)cc[n+]3C)c3nc(c(-c4n(CCOC)cc[n+]4C)c4ccc1[n-]4)C=C3)C=C2.[Mn+3] [MnTM,MOE-2-ImP^5+, Mn(III) tetrakis 5,10,15,20-tetrakis[N-methyl-N′-(2-methoxyethyl)imidazolium-2-yl]porphyrin] | – | – | – | – | – | – | – | – | Metal-centered redox potential E1/2 ([5]; Mn(III)/Mn(II), 0.1 M NaCl, 0.05 M phosphate buffer, pH 7.8, ±3 mV): +356 mV vs NHE; log kcat for O2^− dismutation [6]: 7.98; Rf (compound path/solvent path), metal-free porphyrin (in parenthesis) ([7]; metal-free ligand of the named Mn porphyrin): 0.17; Rf (compound path/solvent path), Mn complex [7]: 0.15; degradation within 2 hours [8]: 2% |
| CCCCCCCC[n+]1ccccc1-c1c2nc(c(-c3cccc[n+]3CCCCCCCC)c3ccc([nH]3)c(-c3cccc[n+]3CCCCCCCC)c3nc(c(-c4cccc[n+]4CCCCCCCC)c4ccc1[nH]4)C=C3)C=C2 [metal-free n-octyl] | – | – | – | – | – | – | – | – | toxicity of metal-free vs Mn(III) complex ([9]; separate experiment): equally toxic |
| CCC[n+]1ccccc1-c1c2nc(c(-c3cccc[n+]3CCC)c3ccc([n-]3)c(-c3cccc[n+]3CCC)c3nc(c(-c4cccc[n+]4CCC)c4ccc1[n-]4)C=C3)C=C2.[Mn+3] [MnTnPr-2-PyP^5+] | most effective | low protection | either much higher or near full protection | concentration-dependent manner | +238 mV vs NHE | 7.38 | 0.31 | 0.20 | – |
| CCCC[n+]1ccccc1-c1c2nc(c(-c3cccc[n+]3CCCC)c3ccc([n-]3)c(-c3cccc[n+]3CCCC)c3nc(c(-c4cccc[n+]4CCCC)c4ccc1[n-]4)C=C3)C=C2.[Mn+3] [MnTnBu-2-PyP^5+] | – | – | – | – | +254 mV vs NHE | 7.25 | 0.46 | 0.33 | E1/2 more positive / higher than that of MnTE-2-PyP^5+ ([5]; difference vs MnTE-2-PyP^5+ (+228 mV vs NHE)): 26 mV; slope of log kcat vs μ^1/2/(1+μ^1/2) ([10]; 0.05 M phosphate buffer, pH 7.8, 0-0.4 M NaCl): −4.15; kcat less sensitive to changes in ionic strength than MnTMOE-2-PyP^5+ ([10]; vs MnTMOE-2-PyP^5+): 40%; aerobic growth of SOD-deficient E. coli ([1]; 5AA minimal medium, 3 μM): nearly as effective; aerobic growth of SOD-deficient E. coli ([1]; M9CA medium, 1 and 3 μM): less effective; aerobic growth of SOD-deficient E. coli ([1]; M9CA medium, 10 and 30 μM): most effective; toxicity to wild type E. coli ([9]; M9CA medium, 30 μM (up to 30 μM)): only marginal toxicity; concentration at which toxicity on the parental (wild type) strain is exerted / becomes observable ([9]; M9CA medium, range 0.1 to 30 μM): 30 µM |
